# Measurements: patent US11267811B2, “Small molecule inhibitors of galectin-3” (BRISTOL-MYERS SQUIBB COMPANY, priority 2017, dated 2022)
# Where two headings read alike, the source gives them in different places.
# Molecular target: His-tagged recombinant human Gal-3 (hGal-3) (Homo sapiens (Human), UniProt P17931)
# Assay: Gal-3 HTRF assay (His-tagged hGal-3 binding to B-ASF);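 note: compounds preincubated 30 min with hGal-3, then 1 h with B-ASF, detection via terbium anti-His antibody and streptavidin d2. Control with B-ASF counts as full signal, omitting B-ASF as background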
# [1] = HTRF, hGal-3 15 nM, B-ASF 15 nM, read-out: hGal-3 IC50
# Sequence of His-tagged recombinant human Gal-3 (hGal-3) (P17931 whole entry): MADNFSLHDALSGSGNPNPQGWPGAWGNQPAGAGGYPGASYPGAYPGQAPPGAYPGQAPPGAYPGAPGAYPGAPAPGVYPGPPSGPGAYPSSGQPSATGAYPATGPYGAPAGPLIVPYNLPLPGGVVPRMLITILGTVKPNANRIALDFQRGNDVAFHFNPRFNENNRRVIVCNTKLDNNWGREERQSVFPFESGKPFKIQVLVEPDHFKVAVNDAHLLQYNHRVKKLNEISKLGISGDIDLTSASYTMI
IC50 [1] [nM],IC50 (read-out: hGal3 IC50) [nM],SMILES
930,–,OC[C@H]1O[C@@H](c2nncn2-c2cccc3cc[nH]c23)[C@H](O)[C@@H](n2cc(-c3cc(F)c(F)c(F)c3)nn2)[C@H]1O [Example 165]
150,–,Cn1ncc2ccc(-n3cnnc3[C@@H]3O[C@H](CO)[C@H](O)[C@H](n4cc(-c5cc(F)c(F)c(F)c5)nn4)[C@H]3O)cc21 [Example 166]
300,–,Cn1cc2ccc(-n3cnnc3[C@@H]3O[C@H](CO)[C@H](O)[C@H](n4cc(-c5cc(F)c(F)c(F)c5)nn4)[C@H]3O)cc2n1 [Example 167]
500,–,Cc1nc2cc(-n3cnnc3[C@@H]3O[C@H](CO)[C@H](O)[C@H](n4cc(-c5cc(F)c(F)c(F)c5)nn4)[C@H]3O)ccc2n1C [Example 168]
280,–,Cc1nc2ccc(-n3cnnc3[C@@H]3O[C@H](CO)[C@H](O)[C@H](n4cc(-c5cc(F)c(F)c(F)c5)nn4)[C@H]3O)cc2n1C [Example 169]
2000,–,"OCCn1cnnc1[C@@H]1O[C@H](CO)[C@H](O)[C@H](n2cc(-c3cc(F)c(F)c(F)c3)nn2)[C@H]1O [Example 170, (2S,3R,4R,5R,6R)-2-(4-(2-hydroxyethyl)-4H-1,2,4-triazol-3-yl)-6-(hydroxymethyl)-4-(4-(3,4,5-trifluorophenyl)-1H-1,2,3-triazol-1-yl)tetrahydro-2H-pyran-3,5-diol]"
2020,–,OC[C@H]1O[C@@H](c2ncnn2[C@@H]2CCCC[C@H]2O)[C@H](O)[C@@H](n2cc(-c3cc(F)c(F)c(F)c3)nn2)[C@H]1O [Example 171]
3840,–,OC[C@H]1O[C@@H](c2ncnn2C2CCNCC2)[C@H](O)[C@@H](n2cc(-c3cc(F)c(F)c(F)c3)nn2)[C@H]1O [Example 172]
180,–,"OC[C@H]1O[C@@H](c2ncnn2-c2cccc(Cl)c2)C[C@@H](n2cc(-c3cc(F)c(F)c(F)c3)nn2)[C@H]1O [Example 173, (2R,3R,4R,6R)-6-(1-(3-chlorophenyl)-1H-1,2,4-triazol-5-yl)-2-(hydroxymethyl)-4-(4-(3,4,5-trifluorophenyl)-1H-1,2,3-triazol-1-yl)tetrahydro-2H-pyran-3-ol]"
300,–,OC[C@H]1O[C@@H](c2ncnn2-c2ccc(Cl)c(Cl)c2)C[C@@H](n2cc(-c3cc(F)c(F)c(F)c3)nn2)[C@H]1O [Example 174]
650,–,NC(=O)c1cccc(-n2ncnc2[C@H]2C[C@@H](n3cc(-c4cc(F)c(F)c(F)c4)nn3)[C@@H](O)[C@@H](CO)O2)c1 [Example 175]
40,–,Cc1nc2ccc(-n3ncnc3[C@H]3C[C@@H](n4cc(-c5cc(F)c(F)c(F)c5)nn4)[C@@H](O)[C@@H](CO)O3)cc2s1 [Example 176]
130,–,OC[C@H]1O[C@@H](c2ncnn2-c2cc(Cl)ccc2Cl)C[C@@H](n2cc(-c3cc(F)c(F)c(F)c3)nn2)[C@H]1O [Example 177]
250,–,Cc1ccc(Cl)cc1-n1ncnc1[C@H]1C[C@@H](n2cc(-c3cc(F)c(F)c(F)c3)nn2)[C@@H](O)[C@@H](CO)O1 [Example 178]
250,–,OC[C@H]1O[C@@H](c2ncnn2-c2cc(Cl)ccc2F)C[C@@H](n2cc(-c3cc(F)c(F)c(F)c3)nn2)[C@H]1O [Example 179]
210,–,COc1ccc(Cl)cc1-n1ncnc1[C@H]1C[C@@H](n2cc(-c3cc(F)c(F)c(F)c3)nn2)[C@@H](O)[C@@H](CO)O1 [Example 180]
40,–,OC[C@H]1O[C@@H](c2ncnn2-c2ccc3ncsc3c2)C[C@@H](n2cc(-c3cc(F)c(F)c(F)c3)nn2)[C@H]1O [Example 181]
120,–,Cc1nc2cc(Cl)c(-n3ncnc3[C@H]3C[C@@H](n4cc(-c5cc(F)c(F)c(F)c5)nn4)[C@@H](O)[C@@H](CO)O3)cc2s1 [Example 182]
160,–,"COc1ccc(Cl)cc1-n1nc(C)nc1[C@H]1C[C@@H](n2cc(-c3cc(F)c(F)c(F)c3)nn2)[C@@H](O)[C@@H](CO)O1 [Example 183, (2R,3R,4R,6R)-6-(1-(5-chloro-2-methoxyphenyl)-3-methyl-1H-1,2,4-triazol-5-yl)-2-(hydroxymethyl)-4-(4-(3,4,5-trifluorophenyl)-1H-1,2,3-triazol-1-yl)tetrahydro-2H-pyran-3-ol]"
90,–,Cc1nc([C@H]2C[C@@H](n3cc(-c4cc(F)c(F)c(F)c4)nn3)[C@@H](O)[C@@H](CO)O2)n(-c2cc(Cl)ccc2C)n1 [Example 184]
170,–,Cc1nc([C@H]2C[C@@H](n3cc(-c4cc(F)c(F)c(F)c4)nn3)[C@@H](O)[C@@H](CO)O2)n(-c2cc(Cl)ccc2F)n1 [Example 185]
50,–,Cc1nc([C@H]2C[C@@H](n3cc(-c4cc(F)c(F)c(F)c4)nn3)[C@@H](O)[C@@H](CO)O2)n(-c2ccc3ncsc3c2)n1 [Example 186]
110,–,Cc1nc([C@H]2C[C@@H](n3cc(-c4cc(F)c(F)c(F)c4)nn3)[C@@H](O)[C@@H](CO)O2)n(-c2ccc3nc(C)sc3c2)n1 [Example 187]
90,–,CO[C@@H]1[C@@H](n2cc(-c3cc(F)c(F)c(F)c3)nn2)[C@@H](O)[C@@H](CO)O[C@H]1c1ncnn1-c1cccc(Cl)c1 [Example 189]
180,–,CO[C@@H]1[C@@H](n2cc(-c3cc(F)c(F)c(F)c3)nn2)[C@@H](O)[C@@H](CO)O[C@H]1c1ncnn1-c1ccc(Cl)c(Cl)c1 [Example 190]

IC50 [1] [nM],IC50 (read-out: hGal3 IC50) [nM],SMILES
60,–,CO[C@@H]1[C@@H](n2cc(-c3cc(F)c(F)c(F)c3)nn2)[C@@H](O)[C@@H](CO)O[C@H]1c1ncnn1-c1ccc2nc(C)sc2c1 [Example 191]
40,–,CO[C@@H]1[C@@H](n2cc(-c3cc(F)c(F)c(F)c3)nn2)[C@@H](O)[C@@H](CO)O[C@H]1c1ncnn1-c1ccc2ncsc2c1 [Example 192]
180,–,"Cc1nc2ccc(-n3ncnc3[C@@H]3O[C@H](CO)[C@H](O)[C@H](n4cc(C(=O)NC5CC5)nn4)[C@H]3O)cc2s1 [Example 193, N-cyclopropyl-1-((2R,3R,4R,5R,6S)-3,5-dihydroxy-2-(hydroxymethyl)-6-(1-(2-methylbenzo[d]thiazol-6-yl)-1H-1,2,4-triazol-5-yl)tetrahydro-2H-pyran-4-yl)-1H-1,2,3-triazole-4-carboxamide]"
4090,–,Cc1nc2ccc(-n3ncnc3[C@@H]3O[C@H](CO)[C@H](O)[C@H](n4cc(C(N)=O)nn4)[C@H]3O)cc2s1 [Example 194]
1160,–,CNC(=O)c1cn([C@H]2[C@@H](O)[C@@H](CO)O[C@@H](c3ncnn3-c3ccc4nc(C)sc4c3)[C@@H]2O)nn1 [Example 195]
5650,–,Cc1nc2ccc(-n3ncnc3[C@@H]3O[C@H](CO)[C@H](O)[C@H](n4cc(C(=O)N(C)C)nn4)[C@H]3O)cc2s1 [Example 196]
1320,–,Cc1nc2ccc(-n3ncnc3[C@@H]3O[C@H](CO)[C@H](O)[C@H](n4cc(C(=O)NC5CCCC5)nn4)[C@H]3O)cc2s1 [Example 197]
1020,–,Cc1nc2ccc(-n3ncnc3[C@@H]3O[C@H](CO)[C@H](O)[C@H](n4cc(C(=O)NC5CCCCC5)nn4)[C@H]3O)cc2s1 [Example 198]
360,–,Cc1nc2ccc(-n3ncnc3[C@@H]3O[C@H](CO)[C@H](O)[C@H](n4cc(C(=O)NC5CCC5)nn4)[C@H]3O)cc2s1 [Example 199]
860,–,Cc1nc2ccc(-n3ncnc3[C@@H]3O[C@H](CO)[C@H](O)[C@H](n4cc(C(=O)NCc5cccc(F)c5)nn4)[C@H]3O)cc2s1 [Example 200]
350,–,"Cc1nc2ccc(-n3ncnc3[C@@H]3O[C@H](CO)[C@H](O)[C@H](n4cc(-c5ccc(C6CC6)c(F)c5)nn4)[C@H]3O)cc2s1 [Example 201, (2R,3R,4R,5R,6S)-4-(4-(4-cyclopropyl-3-fluorophenyl)-1H-1,2,3-triazol-1-yl)-2-(hydroxymethyl)-6-(1-(2-methylbenzo[d]thiazol-6-yl)-1H-1,2,4-triazol-5-yl)tetrahydro-2H-pyran-3,5-diol]"
–,440,Cc1nc2ccc(-n3ncnc3[C@@H]3O[C@H](CO)[C@H](O)[C@H](n4cc(-c5ccc(N)c(F)c5)nn4)[C@H]3O)cc2s1 [Example 202]
–,2120,Cc1nc2ccc(-n3ncnc3[C@@H]3O[C@H](CO)[C@H](O)[C@H](n4cc(-c5ccc(NS(C)(=O)=O)c(F)c5)nn4)[C@H]3O)cc2s1 [Example 203]
–,5000,CC(=O)Nc1ccc(-c2cn([C@H]3[C@@H](O)[C@@H](CO)O[C@@H](c4ncnn4-c4ccc5nc(C)sc5c4)[C@@H]3O)nn2)cc1F [Example 204]
–,1110,COC(=O)Nc1ccc(-c2cn([C@H]3[C@@H](O)[C@@H](CO)O[C@@H](c4ncnn4-c4ccc5nc(C)sc5c4)[C@@H]3O)nn2)cc1F [Example 205]
–,1540,Cc1nc2ccc(-n3ncnc3[C@@H]3O[C@H](CO)[C@H](O)[C@H](n4cc(-c5ccc(N(C)C)c(F)c5)nn4)[C@H]3O)cc2s1 [Example 206]
–,740,CNc1ccc(-c2cn([C@H]3[C@@H](O)[C@@H](CO)O[C@@H](c4ncnn4-c4ccc5nc(C)sc5c4)[C@@H]3O)nn2)cc1F [Example 207]
–,3820,Cc1nc2ccc(-n3ncnc3[C@@H]3O[C@H](CO)[C@H](O)[C@H](n4cc(-c5ccc(N(C)S(C)(=O)=O)c(F)c5)nn4)[C@H]3O)cc2s1 [Example 208]
–,80,Cc1nc2ccc(-n3ncnc3[C@@H]3O[C@H](CO)[C@H](O)[C@H](n4cc(-c5ccc(C(F)(F)F)c(F)c5)nn4)[C@H]3O)cc2s1 [Example 209]
–,40,Cc1nc2ccc(-n3ncnc3[C@@H]3O[C@H](CO)[C@H](O)[C@H](n4cc(-c5cc(F)c(Cl)c(F)c5)nn4)[C@H]3O)cc2s1 [Example 210]
–,60,Cc1nc2ccc(-n3ncnc3[C@@H]3O[C@H](CO)[C@H](O)[C@H](n4cc(-c5ccc(Cl)c(Cl)c5)nn4)[C@H]3O)cc2s1 [Example 211]
–,60,Cc1nc2ccc(-n3ncnc3[C@@H]3O[C@H](CO)[C@H](O)[C@H](n4cc(-c5ccc(C)c(F)c5)nn4)[C@H]3O)cc2s1 [Example 212]
–,120,Cc1nc2ccc(-n3ncnc3[C@@H]3O[C@H](CO)[C@H](O)[C@H](n4cc(-c5cccc(F)c5)nn4)[C@H]3O)cc2s1 [Example 213]
–,600,Cc1nc2ccc(-n3ncnc3[C@@H]3O[C@H](CO)[C@H](O)[C@H](n4cc(-c5ccccc5)nn4)[C@H]3O)cc2s1 [Example 214]
–,140,Cc1nc2ccc(-n3ncnc3[C@@H]3O[C@H](CO)[C@H](O)[C@H](n4cc(-c5cc(F)cc(F)c5)nn4)[C@H]3O)cc2s1 [Example 215]
